{"source": "patent EP0672421B1", "about": "“ENDOTHELIN ACTIVITY INHIBITOR” (Kurashiki Boseki Kabushiki Kaisha, priority 1993, dated 2002)", "tested_on": "3T3 cells", "experiment": "Increase of intracellular calcium ion concentration by addition of endothelin", "assay_type": "cell-based", "conditions": "mouse 3T3 cells; endothelin-1 0.01 to 100 ng/ml; relative fluorescence intensity; Figure 4", "experimental": "It is known that addition of endothelin into culture cell causes the elevation of intracellular Ca^2+ concentration.\nCommercially available 3T3 cells (ATCC No.CCL92) cultured in a flask according to the standard method were used in the experiments. The cells adhered to a inner wall of the flask were harvested by trypsinization treatment, washed three times with Ca^2+-free phosphate buffered saline (PBS) and suspended into 200 µl of the Ca^2+-free PBS. Into the cell suspension, a fluorescent indicator of Ca^2+, FLUO-3AM (Wako chemicals: 1 mM in DMSO solution), was added at a final concentration of 1 µM. The cells were incubated at 37°C for 10 minutes to allow them to uptake the indicator. […]\nThe increase in relative fluorescence intensity caused by Ca^2+ influx was measured with FACScan of Becton, Dickinson & Co.. In the measurement, a base line was determined over 20 seconds, then a test substance (for example endothelin) was added into the sample and followed the time course of the relative fluorescence intensity for about 80 seconds.\nInto each aliquots of the above cell suspension, endothelin-1 was added at a final concentration of 0.01 to 100 ng/ml to observe the changes in the relative fluorescence intensity.", "note": "Positions of bridges follow the written chain, without caps; N, C: chain ends. No end group written: not given here."}
{"substance": "endothelin-1 (CSCSSLMDKECVYFCHLDIIW; disulfide 1-15, 3-11; ends not checked; UniProt P05305 53-73, looked up)", "values": [{"measurement": "increase of intracellular calcium ion concentration", "value": "increase of the intracellular calcium ion concentration occurs in proportion to the concentration of endothelin"}]}
